Earlier results on 1 compound are cited in patent US20070231385A1, “Controlled Release Pharmaceutical Composition and a Process for Preparing the Same” (Lupin Limited, priority 2003, published 2007).

Molecules are shown by their SMILES.

For the data set the following is noted: background statement.

`Cc1ccnc2c1NC(=O)c1cccnc1N2C1CC1` [Nevaripine]: the serum half-life result was “more than 25 hours”.
